Laboratory results from patent US20240158370A1, “CK1 alpha AND DUAL CK1 alpha / GSPT1 DEGRADING COMPOUNDS” (Innovo Therapeutics, Inc., priority 2022, published 2024).

Experiments:
GSPT1 = GSPT1 (Homo sapiens, UniProt P15170+Q96SW2); assay: HiBiT degradation assay, GSPT1, Procedure A; format: cell-based; design: HiBit-GSPT1 KI HEK293(LgBit) Cells; host or cells: HEK293(LgBit) knock-in cells; conditions: six hours incubation
Experimental: (§1) Compounds were spotted onto Cornin 384-Well, Cell Culture-Treated, Flat-Bottom, Low Flange Microplate (Fisher Scientific, Catalog #07-201-013) using a Tecan D300e digital dispenser. Ten-point dose response curves spanning from 10 μM to 0.005 μM with a 0.1% DMSO tolerance were used.
(§2) Cells were dissociated from tissue 182 cm^2 Tissue Culture Flask (CellTreat Catalog #229351) by washing the cells with PBS (Fisher Scientific Catalog #BP3994) followed by dissociation with Trypsin-EDTA (0.25%) (Thermo Scientific Catalog #25200056). Trysin was neutralized and cells were resuspended with DMEM+10% FBS. Cells were centrifuged for 5 minutes at 1200 RPMs. Cell culture media was aspirated off and cells were resuspended with DMEM+10% FBS. Cell density was determined using a Denovix CellDrop BF cell counter. Cell density was adjusted to 1×10^6 cells/ml. 40 μl of cells was added to compound treated tissue culture plates and incubated for six hours at 37° C. After six hours, cell culture plates were removed from tissue culture incubator and cooled to room temperature. 40 μl of Nano-GloHiBiT Lytic Detection Reagent (Promega, Catalog #N3040) was added to each well. Plates were placed on an orbital shaker (600 rpm) for 20 minutes. Luminescence was measured using an Envsion plate reader (Perkin Elmer). DC50 curves and Ymin were generated using a 4-parameter curve fit with GraphPad Prism software (Prism Corporation).
(§3) Results from the HiBiT assay (DC50 (nM) and Ymin (% remaining)) are shown below. All CK1α data was generated according to Procedure A. GSPT1 data for Examples 1-600, 603-620 and 703-705 was generated according to Procedure A. GSPT1 data for Examples 601, 621-702 and 706-735 was generated according to Procedure B.

CK1α = target: T1, CK1α (Homo sapiens, UniProt P48729+Q96SW2); assay: HiBiT degradation assay, CK1α, Procedure A; format: cell-based; conditions: six hours incubation
T1 construct: CSNK1A1-HiBit KI HEK293(LgBit) Cells; host or cells: HEK293(LgBit) knock-in cells
Experimental: as §1, §2, §3

T1 sequence (P48729 whole entry): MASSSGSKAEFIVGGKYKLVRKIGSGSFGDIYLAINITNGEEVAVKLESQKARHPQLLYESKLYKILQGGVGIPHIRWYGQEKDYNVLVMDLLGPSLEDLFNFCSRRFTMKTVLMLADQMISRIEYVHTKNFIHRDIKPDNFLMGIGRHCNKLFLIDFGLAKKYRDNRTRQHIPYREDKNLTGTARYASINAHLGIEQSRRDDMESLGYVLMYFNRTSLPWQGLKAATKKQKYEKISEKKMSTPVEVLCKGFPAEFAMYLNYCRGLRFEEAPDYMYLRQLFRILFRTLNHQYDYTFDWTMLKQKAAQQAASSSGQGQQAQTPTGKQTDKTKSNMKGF
T1 sequence (Q96SW2 whole entry): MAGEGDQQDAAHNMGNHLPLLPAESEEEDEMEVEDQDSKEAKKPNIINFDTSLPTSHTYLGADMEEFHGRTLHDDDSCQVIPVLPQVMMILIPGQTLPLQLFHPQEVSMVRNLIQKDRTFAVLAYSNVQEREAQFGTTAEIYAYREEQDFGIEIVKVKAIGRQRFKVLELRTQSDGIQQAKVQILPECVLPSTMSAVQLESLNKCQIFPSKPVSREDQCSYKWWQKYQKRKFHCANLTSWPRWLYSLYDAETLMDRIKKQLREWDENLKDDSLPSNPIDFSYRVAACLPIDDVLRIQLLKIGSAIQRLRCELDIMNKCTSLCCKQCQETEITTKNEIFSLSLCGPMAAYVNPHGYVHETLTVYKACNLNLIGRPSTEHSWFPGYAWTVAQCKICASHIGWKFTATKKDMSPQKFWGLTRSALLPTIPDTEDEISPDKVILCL
T1 sequence (Q16531 whole entry partner): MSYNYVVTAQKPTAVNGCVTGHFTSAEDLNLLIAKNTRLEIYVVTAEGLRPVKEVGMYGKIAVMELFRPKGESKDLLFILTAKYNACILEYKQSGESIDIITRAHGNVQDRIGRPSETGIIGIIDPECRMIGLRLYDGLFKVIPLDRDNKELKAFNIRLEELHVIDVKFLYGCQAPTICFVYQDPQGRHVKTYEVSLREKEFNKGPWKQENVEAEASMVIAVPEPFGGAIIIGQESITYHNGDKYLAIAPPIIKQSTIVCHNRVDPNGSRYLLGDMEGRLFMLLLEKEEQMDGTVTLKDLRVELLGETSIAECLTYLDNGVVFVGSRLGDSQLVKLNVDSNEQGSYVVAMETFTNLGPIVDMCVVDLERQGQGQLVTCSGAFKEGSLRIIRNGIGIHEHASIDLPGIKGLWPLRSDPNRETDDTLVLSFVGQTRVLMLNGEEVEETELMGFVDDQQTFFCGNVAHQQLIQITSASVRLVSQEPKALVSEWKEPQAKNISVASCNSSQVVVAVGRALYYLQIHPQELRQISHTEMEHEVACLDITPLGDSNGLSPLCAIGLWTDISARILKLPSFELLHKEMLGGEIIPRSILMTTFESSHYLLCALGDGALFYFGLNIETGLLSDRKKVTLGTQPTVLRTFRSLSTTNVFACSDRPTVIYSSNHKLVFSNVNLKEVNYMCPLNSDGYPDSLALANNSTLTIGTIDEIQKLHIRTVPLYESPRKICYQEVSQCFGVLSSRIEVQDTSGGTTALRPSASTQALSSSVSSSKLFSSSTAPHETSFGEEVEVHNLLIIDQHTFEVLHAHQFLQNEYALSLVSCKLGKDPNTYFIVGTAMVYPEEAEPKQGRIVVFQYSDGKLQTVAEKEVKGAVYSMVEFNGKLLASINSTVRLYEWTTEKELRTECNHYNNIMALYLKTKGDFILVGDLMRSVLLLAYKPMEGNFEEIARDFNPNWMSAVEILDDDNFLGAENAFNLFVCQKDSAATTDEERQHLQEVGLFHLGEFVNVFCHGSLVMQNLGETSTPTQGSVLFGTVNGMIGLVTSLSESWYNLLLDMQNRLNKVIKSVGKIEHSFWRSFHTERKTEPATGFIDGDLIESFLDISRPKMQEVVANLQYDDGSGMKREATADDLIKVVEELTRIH
GSPT1, sequence (P15170 whole entry): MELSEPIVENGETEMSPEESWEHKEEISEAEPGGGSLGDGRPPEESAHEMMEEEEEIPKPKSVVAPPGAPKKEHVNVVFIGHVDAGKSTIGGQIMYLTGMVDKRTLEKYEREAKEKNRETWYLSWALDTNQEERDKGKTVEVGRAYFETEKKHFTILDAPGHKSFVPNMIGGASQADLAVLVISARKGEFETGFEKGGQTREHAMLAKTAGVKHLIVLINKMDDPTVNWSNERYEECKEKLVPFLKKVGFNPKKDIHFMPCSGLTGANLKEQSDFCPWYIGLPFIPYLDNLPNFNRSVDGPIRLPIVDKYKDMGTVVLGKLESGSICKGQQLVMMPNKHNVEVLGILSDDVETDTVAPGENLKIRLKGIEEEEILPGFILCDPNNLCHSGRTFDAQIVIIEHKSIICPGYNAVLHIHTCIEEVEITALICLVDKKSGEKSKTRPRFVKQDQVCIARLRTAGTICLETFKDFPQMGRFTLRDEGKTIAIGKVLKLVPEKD
GSPT1, sequence (Q96SW2 whole entry): as the sequence (Q96SW2 whole entry) above
GSPT1, sequence (Q16531 whole entry partner): as the sequence (Q16531 whole entry partner) above

Row | Structure (SMILES) | DC50 (GSPT1) [nM] | GSPT1 Ymin (GSPT1) | CK1α Ymin (CK1α) | DC50 (CK1α) [nM]
1 | COc1cccc(-c2c(-c3ccc4c(c3)CN(C3CCC(=O)NC3=O)C4=O)cnn2C)c1 (centres unmarked) [Example 69] | ≥ 25 | F (F = >75-100% remaining) | E (E = >25-75% remaining) | < 25
2 | COc1ccc(-c2c(-c3ccc4c(c3)CN(C3CCC(=O)NC3=O)C4=O)cnn2C)cc1 (centres unmarked) [Example 70] | ≥ 25 | F (F = >75-100% remaining) | C (C = 0-10% remaining) | < 25
3 | Cn1ncc(-c2ccc3c(c2)CN(C2CCC(=O)NC2=O)C3=O)c1-c1ccccc1C(F)(F)F (centres unmarked) [Example 71] | ≥ 25 | F (F = >75-100% remaining) | F (F = >75-100% remaining) | < 25
4 | Cc1ccccc1-c1c(-c2ccc3c(c2)CN(C2CCC(=O)NC2=O)C3=O)cnn1C (centres unmarked) [Example 74] | ≥ 25 | F (F = >75-100% remaining) | E (E = >25-75% remaining) | < 25
5 | Cn1ncc(-c2ccc3c(c2)CN(C2CCC(=O)NC2=O)C3=O)c1-c1ccc(Cl)c(Cl)c1 (centres unmarked) [Example 75] | ≥ 25 | F (F = >75-100% remaining) | E (E = >25-75% remaining) | ≥ 25
6 | Cn1ncc(-c2ccc3c(c2)CN(C2CCC(=O)NC2=O)C3=O)c1-c1ccc(Cl)cc1F (centres unmarked) [Example 79] | ≥ 25 | F (F = >75-100% remaining) | E (E = >25-75% remaining) | < 25
7 | Cn1ncc(-c2ccc3c(c2)CN(C2CCC(=O)NC2=O)C3=O)c1-c1ccc(OCc2ccccc2)c(Cl)c1 (centres unmarked) [Example 81] | ≥ 25 | F (F = >75-100% remaining) | E (E = >25-75% remaining) | ≥ 25
8 | Cc1ccc(-c2c(-c3ccc4c(c3)CN(C3CCC(=O)NC3=O)C4=O)cnn2C)c(C)c1 (centres unmarked) [Example 83] | ≥ 25 | F (F = >75-100% remaining) | E (E = >25-75% remaining) | < 25
9 | Cc1ccc(-c2c(-c3ccc4c(c3)CN(C3CCC(=O)NC3=O)C4=O)cnn2C)c(Cl)c1 (centres unmarked) [Example 85] | ≥ 25 | F (F = >75-100% remaining) | E (E = >25-75% remaining) | < 25
10 | Cc1ccc(C)c(-c2c(-c3ccc4c(c3)CN(C3CCC(=O)NC3=O)C4=O)cnn2C)c1 (centres unmarked) [Example 87] | ≥ 25 | F (F = >75-100% remaining) | E (E = >25-75% remaining) | < 25
11 | Cn1ncc(-c2ccc3c(c2)CN(C2CCC(=O)NC2=O)C3=O)c1-c1ccc(F)cc1Cl (centres unmarked) [Example 88] | ≥ 25 | F (F = >75-100% remaining) | E (E = >25-75% remaining) | < 25
12 | Cc1ccc(F)c(-c2c(-c3ccc4c(c3)CN(C3CCC(=O)NC3=O)C4=O)cnn2C)c1 (centres unmarked) [Example 89] | ≥ 25 | F (F = >75-100% remaining) | E (E = >25-75% remaining) | < 25
13 | Cn1ncc(-c2ccc3c(c2)CN(C2CCC(=O)NC2=O)C3=O)c1-c1ccc(Cl)c(F)c1 (centres unmarked) [Example 90] | ≥ 25 | F (F = >75-100% remaining) | E (E = >25-75% remaining) | < 25
14 | Cc1cc(-c2c(-c3ccc4c(c3)CN(C3CCC(=O)NC3=O)C4=O)cnn2C)ccc1F (centres unmarked) [Example 91] | ≥ 25 | E (E = >25-75% remaining) | E (E = >25-75% remaining) | < 25
15 | Cc1ccc(-c2c(-c3ccc4c(c3)CN(C3CCC(=O)NC3=O)C4=O)cnn2C)c(F)c1 (centres unmarked) [Example 94] | ≥ 25 | F (F = >75-100% remaining) | D (D = >10- 25% remaining) | < 25
16 | Cn1ncc(-c2ccc3c(c2)CN(C2CCC(=O)NC2=O)C3=O)c1-c1ccsc1 (centres unmarked) [Example 95] | ≥ 25 | F (F = >75-100% remaining) | D (D = >10- 25% remaining) | < 25
17 | Cn1ncc(-c2ccc3c(c2)CN(C2CCC(=O)NC2=O)C3=O)c1-c1ccc2c(c1)CCO2 (centres unmarked) [Example 97] | ≥ 25 | F (F = >75-100% remaining) | D (D = >10- 25% remaining) | < 25

Other lines, results leading:

Row | DC50 (GSPT1) [nM] | GSPT1 Ymin (GSPT1) | CK1α Ymin (CK1α) | DC50 (CK1α) [nM] | Structure (SMILES)
18 | ≥ 25 | F (F = >75-100% remaining) | E (E = >25-75% remaining) | < 25 | Cn1ncc(-c2ccc3c(c2)CN(C2CCC(=O)NC2=O)C3=O)c1-c1cccc(F)c1F (centres unmarked) [Example 73]
19 | ≥ 25 | F (F = >75-100% remaining) | D (D = >10- 25% remaining) | < 25 | Cc1cccc(-c2c(-c3ccc4c(c3)CN(C3CCC(=O)NC3=O)C4=O)cnn2C)c1 (centres unmarked) [Example 76]
20 | ≥ 25 | F (F = >75-100% remaining) | E (E = >25-75% remaining) | < 25 | Cn1ncc(-c2ccc3c(c2)CN(C2CCC(=O)NC2=O)C3=O)c1-c1cc(F)ccc1F (centres unmarked) [Example 77]
21 | ≥ 25 | F (F = >75-100% remaining) | E (E = >25-75% remaining) | < 25 | COc1cc(-c2c(-c3ccc4c(c3)CN(C3CCC(=O)NC3=O)C4=O)cnn2C)ccc1C (centres unmarked) [Example 78]
22 | ≥ 25 | F (F = >75-100% remaining) | E (E = >25-75% remaining) | < 25 | Cc1ccc(-c2c(-c3ccc4c(c3)CN(C3CCC(=O)NC3=O)C4=O)cnn2C)cc1Cl (centres unmarked) [Example 80]
23 | ≥ 25 | F (F = >75-100% remaining) | E (E = >25-75% remaining) | < 25 | COc1ccc(Cl)c(-c2c(-c3ccc4c(c3)CN(C3CCC(=O)NC3=O)C4=O)cnn2C)c1 (centres unmarked) [Example 82]
24 | ≥ 25 | F (F = >75-100% remaining) | E (E = >25-75% remaining) | < 25 | CC(C)c1ccc(-c2c(-c3ccc4c(c3)CN(C3CCC(=O)NC3=O)C4=O)cnn2C)cc1 (centres unmarked) [Example 84]
25 | ≥ 25 | F (F = >75-100% remaining) | E (E = >25-75% remaining) | < 25 | Cc1ccc(Cl)c(-c2c(-c3ccc4c(c3)CN(C3CCC(=O)NC3=O)C4=O)cnn2C)c1 (centres unmarked) [Example 86]
26 | ≥ 25 | F (F = >75-100% remaining) | E (E = >25-75% remaining) | ≥ 25 | CC(C)Cc1ccc(-c2c(-c3ccc4c(c3)CN(C3CCC(=O)NC3=O)C4=O)cnn2C)cc1 (centres unmarked) [Example 92]
27 | ≥ 25 | F (F = >75-100% remaining) | E (E = >25-75% remaining) | ≥ 25 | Cn1ncc(-c2ccc3c(c2)CN(C2CCC(=O)NC2=O)C3=O)c1-c1cc(Cl)ccc1F (centres unmarked) [Example 93]
28 | ≥ 25 | F (F = >75-100% remaining) | E (E = >25-75% remaining) | ≥ 25 | COc1ccccc1-c1c(-c2ccc3c(c2)CN(C2CCC(=O)NC2=O)C3=O)cnn1C (centres unmarked) [Example 96]
29 | ≥ 25 | F (F = >75-100% remaining) | E (E = >25-75% remaining) | ≥ 25 | Cn1ncc(-c2ccc3c(c2)CN(C2CCC(=O)NC2=O)C3=O)c1-c1ccc(C(=O)NC2CCCC2)cc1 (centres unmarked) [Example 98]
